Laboratory results reported in patent US20120115724A1, “METHOD OF CONTROLLING UNDESIRED VEGETATION” (SYNGENTA CROP PROTECTION LLC, priority 2009, published 2012).

Tests used:
Type in all cases: in vivo
[1] = tested on: Ipomea hederaceae (IPOHE); test: Post-emergence biological efficacy (Example 14); conditions: post-emergence, 1,000 g/ha, after 13 days; for pest or weed control at 1000 g/ha: Ipomoea hederacea, 312 h, read-out: Percentage damage IPOHE
Experimental: (§1) Seeds of Alopecurus myosuroides (ALOMY), Setaria faberi (SETFA), Echinochloa crus-galli (ECHCG), Solanum nigrum (SOLNI), Amaranthus retroflexus (AMARE) and Ipomea hederaceae (IPOHE) were sown in standard soil in pots. After cultivation for 8 days under controlled conditions in a glasshouse (at 24/16° C., day/night; 14 hours light; 65% humidity), the plants were sprayed with an aqueous spray solution derived from the formulation of the technical active ingredient in acetone/water (50:50) solution containing 0.5% Tween 20 (polyoxyethylene sorbitan monolaurate, CAS RN 9005-64-5) to give a final dose of 250 or 1000 g/ha of test compound. The test plants were then grown on under controlled conditions in a glasshouse (at 24/16° C., day/night; 14 hours light; 65% humidity) and watered twice daily. After 13 days the test was evaluated (100=total damage to plant; 0=no damage to plant).

[2] = tested on: Echinochloa crus-galli (ECHCG); test: Post-emergence biological efficacy (Example 14); conditions: post-emergence, 1,000 g/ha, after 13 days; for pest or weed control at 1000 g/ha: Echinochloa crus-galli, 312 h, read-out: Percentage damage ECHCG
Experimental: as §1

Solanum nigrum (SOLNI) [3] = test: Post-emergence biological efficacy (Example 14); conditions: post-emergence, 1,000 g/ha, after 13 days; for pest or weed control at 1000 g/ha: Solanum nigrum, 312 h, read-out: Percentage damage SOLNI
Experimental: as §1

[4] = tested on: Amaranthus retroflexus (AMARE); test: Post-emergence biological efficacy (Example 14); conditions: post-emergence, 1,000 g/ha, after 13 days; for pest or weed control at 1000 g/ha: Amaranthus retroflexus, 312 h, read-out: Percentage damage AMARE
Experimental: as §1

Setaria faberi (SETFA) [5] = test: Post-emergence biological efficacy (Example 14); conditions: post-emergence, 1,000 g/ha, after 13 days; for pest or weed control at 1000 g/ha: Setaria faberi, 312 h, read-out: Percentage damage SETFA
Experimental: as §1

[6] = tested on: Alopecurus myosuroides (ALOMY); test: Post-emergence biological efficacy (Example 14); conditions: post-emergence, 1,000 g/ha, after 13 days; for pest or weed control at 1000 g/ha: Alopecurus myosuroides, 312 h, read-out: Percentage damage ALOMY
Experimental: as §1

[7] = tested on: Ipomea hederaceae (IPOHE); test: Pre-emergence biological efficacy (Example 13); conditions: pre-emergence, 1,000 g/ha, after 13 days; for pest or weed control at 1000 g/ha: Ipomoea hederacea, 312 h, read-out: Percentage damage IPOHE
Experimental: (§2) Seeds of Alopecurus myosuroides (ALOMY), Setaria faberi (SETFA), Echinochloa crus-galli (ECHCG), Solanum nigrum (SOLNI), Amaranthus retroflexus (AMARE) and Ipomea hederaceae (IPOHE) were sown in standard soil in pots. After cultivation for one day under controlled conditions in a glasshouse (at 24/16° C., day/night; 14 hours light; 65% humidity), the plants were sprayed with an aqueous spray solution derived from the formulation of the technical active ingredient in acetone/water (50:50) solution containing 0.5% Tween 20 (polyoxyethylene sorbitan monolaurate, CAS RN 9005-64-5) to give a final dose of 250 or 1000g/ha of test compound. The test plants were then grown under controlled conditions in the glasshouse (at 24/16° C., day/night; 14 hours light; 65% humidity) and watered twice daily. After 13 days the test was evaluated (100 =total damage to plant; 0 =no damage to plant).

[8] = tested on: Echinochloa crus-galli (ECHCG); test: Pre-emergence biological efficacy (Example 13); conditions: pre-emergence, 1,000 g/ha, after 13 days; for pest or weed control at 1000 g/ha: Echinochloa crus-galli, 312 h, read-out: Percentage damage ECHCG
Experimental: as §2

Solanum nigrum (SOLNI) [9] = test: Pre-emergence biological efficacy (Example 13); conditions: pre-emergence, 1,000 g/ha, after 13 days; for pest or weed control at 1000 g/ha: Solanum nigrum, 312 h, read-out: Percentage damage SOLNI
Experimental: as §2

[10] = tested on: Amaranthus retroflexus (AMARE); test: Pre-emergence biological efficacy (Example 13); conditions: pre-emergence, 1,000 g/ha, after 13 days; for pest or weed control at 1000 g/ha: Amaranthus retroflexus, 312 h, read-out: Percentage damage AMARE
Experimental: as §2

Setaria faberi (SETFA) [11] = test: Pre-emergence biological efficacy (Example 13); conditions: pre-emergence, 1,000 g/ha, after 13 days; for pest or weed control at 1000 g/ha: Setaria faberi, 312 h, read-out: Percentage damage SETFA
Experimental: as §2

[12] = tested on: Alopecurus myosuroides (ALOMY); test: Pre-emergence biological efficacy (Example 13); conditions: pre-emergence, 1,000 g/ha, after 13 days; for pest or weed control at 1000 g/ha: Alopecurus myosuroides, 312 h, read-out: Percentage damage ALOMY
Experimental: as §2

Row | Structure (SMILES) | pest or weed control at 1000 g/ha [1] [%] | pest or weed control at 1000 g/ha [2] [%] | pest or weed control at 1000 g/ha (Solanum nigrum (SOLNI) [3]) [%] | pest or weed control at 1000 g/ha [4] [%] | pest or weed control at 1000 g/ha (Setaria faberi (SETFA) [5]) [%] | pest or weed control at 1000 g/ha [6] [%] | pest or weed control at 1000 g/ha [7] [%] | pest or weed control at 1000 g/ha [8] [%] | pest or weed control at 1000 g/ha (Solanum nigrum (SOLNI) [9]) [%] | pest or weed control at 1000 g/ha [10] [%] | pest or weed control at 1000 g/ha (Setaria faberi (SETFA) [11]) [%] | pest or weed control at 1000 g/ha [12] [%] | other results
1 | C/C=C/c1c(N)nc(-c2ccc(Cl)c(N(C)C)c2F)nc1C(=O)OC [Compound 12, (E)-4-Amino-2-(4-chloro-3-dimethylamino-2-fluorophenyl)-6-methoxy-carbonyl-5-(prop-1-enyl)-pyrimidine] | 40 | 80 | 80 | 100 | 80 | 80 | 0 | 90 | 80 | 100 | 80 | 70 | 
2 | C=Cc1c(NCc2ccco2)nc(-c2ccc(Cl)c(N(C)C)c2F)nc1C(=O)OC [Compound 13, 2-(4-Chloro-3-dimethylamino-2-fluorophenyl)-5-ethenyl-4-(furan-2-ylmethylamino)-6-methoxycarbonyl-pyrimi-dine] | 40 | 80 | 100 | 100 | 80 | 70 | 20 | 90 | 90 | 90 | 60 | 70 | 
3 | C=Cc1c(NCc2ccccc2F)nc(-c2ccc(Cl)c(OC)c2F)nc1C(=O)OC [Compound 14, 2-(4-Chloro-2-fluoro-3-methoxyphenyl)-5-ethenyl-4-(2-fluorophenylmethylamino)-6-methoxycarbonyl-pyrimi-dine] | 60 | 0 | 90 | 100 | 0 | 0 | 50 | 0 | 60 | 20 | 0 | 0 | 
4 | C=Cc1c(NCc2ccccc2[N+](=O)[O-])nc(-c2ccc(Cl)c(OC)c2F)nc1C(=O)OC [Compound 15, 2-(4-Chloro-2-fluoro-3-methoxyphenyl)-5-ethenyl-6-methoxycarbonyl-4-(2-nitrophenylmethyl-amino)-pyrimidine] | 90 | 90 | 90 | 100 | 70 | 70 | 100 | 70 | 100 | 100 | 0 | 50 | 
5 | C=Cc1c(NCc2ccccc2[N+](=O)[O-])nc(-c2ccc(Cl)c(N(C)C)c2F)nc1C(=O)OC [Compound 16, 2-(4-Chloro-3-dimethylamino-2-fluorophenyl)-5-ethenyl-6-methoxycarbonyl-4-(2-nitrophenylmethyl-amino)-pyrimidine] | 60 | 70 | 80 | 100 | 90 | 70 | 0 | 70 | 30 | 50 | 70 | 60 | 
6 | C=Cc1c(NC2CCC2)nc(-c2ccc(Cl)c(OC)c2F)nc1C(=O)OC [Compound 24, 2-(4-Chloro-2-fluoro-3-methoxyphenyl)-4-cyclobutylamino-5-ethenyl-6-methoxycarbonyl pyrimidine] | 70 | 40 | 90 | 100 | 10 | 10 | 80 | 50 | 80 | 100 | 0 | 10 | 
7 | C=Cc1c(NCc2ccco2)nc(-c2ccc(Cl)c(OC)c2F)nc1C(=O)O [Compound 35, 2-(4-Chloro-2-fluoro-3-methoxyphenyl)-5-ethenyl-4-(furan-2-ylmethylamino)-pyrimidine-6-carboxylic acid] | 70 | 80 | 90 | 100 | 80 | 70 | 100 | 90 | 100 | 100 | 90 | 70 | 
8 | C=Cc1c(N)nc(-c2ccc(Cl)c(N(C)C)c2F)nc1C(=O)OCCCCCCCC [Compound 41, 4-Amino-2-(4-chloro-3-dimethylamino-2-fluorophenyl)-5-ethenyl-6- ^noctyloxycarbonyl-pyrimidine] |  |  |  |  |  |  |  |  |  |  |  |  | Percentage damage IPOHE [1]: 80%; Percentage damage ECHCG [2]: 80%; Percentage damage SOLNI (Solanum nigrum (SOLNI) [3]): 90%; Percentage damage AMARE [4]: 100%; Percentage damage SETFA (Setaria faberi (SETFA) [5]): 60%; Percentage damage ALOMY [6]: 70%; Percentage damage IPOHE [7]: 0%; Percentage damage ECHCG [8]: 100%; Percentage damage SOLNI (Solanum nigrum (SOLNI) [9]): 80%; Percentage damage AMARE [10]: 100%; Percentage damage SETFA (Setaria faberi (SETFA) [11]): 90%; Percentage damage ALOMY [12]: 70%
9 | C=Cc1c(N)nc(-c2ccc(Cl)c(N(C)C)c2F)nc1C(=O)OCCOCCCC [Compound 46, 4-Amino-6-(2- ^nbutoxy-ethoxy)carbonyl-2-(4-chloro-3-dimethylamino-2-fluorophenyl)-5-ethenyl-pyrimidine] |  |  |  |  |  |  |  |  |  |  |  |  | Percentage damage IPOHE [1]: 80%; Percentage damage ECHCG [2]: 90%; Percentage damage SOLNI (Solanum nigrum (SOLNI) [3]): 90%; Percentage damage AMARE [4]: 100%; Percentage damage SETFA (Setaria faberi (SETFA) [5]): 90%; Percentage damage ALOMY [6]: 80%; Percentage damage IPOHE [7]: 50%; Percentage damage ECHCG [8]: 100%; Percentage damage SOLNI (Solanum nigrum (SOLNI) [9]): 100%; Percentage damage AMARE [10]: 100%; Percentage damage SETFA (Setaria faberi (SETFA) [11]): 90%; Percentage damage ALOMY [12]: 80%
10 | C=Cc1c(NCc2ccco2)nc(-c2ccc(Cl)c(OC)c2F)nc1C(=O)OCc1ccccc1 [Compound 47, 2-(4-Chloro-2-fluoro-3-methoxyphenyl)-5-ethenyl-4-(furan-2-ylmethylamino)-6-phenylmethoxy-carbonyl-pyrimidine] | 80 | 80 | 80 | 100 | 80 | 60 | 80 | 90 | 80 | 70 | 50 | 30 | 
